Molecules are shown by their SMILES.

Assay [1] has as its system HeLa cells. Briefly: Cell proliferation test using various anticancer drugs. Format: cell-based, human. The conditions noted are these: DAG 0.030% medium; for cell density: HeLa cells 5 days later. Here is the method:
This aqueous solution was sterilized at 121° C. for 20 min in an autoclave. […] The anticancer drug used was Adriamycin (manufactured by WAKO), Paclitaxel (manufactured by WAKO) or Mitomycin C (manufactured by WAKO).
Successively, this plate was cultured by being stood still in a CO2 incubator (37° C., 5% CO2) for 7 days. After culturing for 3, 5, 7 days, to the culture medium was added a WST-8 solution (manufactured by DOJINDO Laboratories, 20 μL), and the mixture was incubated at 37° C. for 100 min. The absorbance at 450 nm was measured by an absorbance spectrometer (manufactured by Molecular Devices, SPECTRA MAX 190), and the number of viable cells was measured by subtracting the absorbance of the medium alone. The culture medium containing the cells after 5 days of culture was stirred with a pipette and the obtained stirred solution (20 μL) was mixed with Trypan Blue stain 0.4% (manufactured by Invitrogen, 20 μL) and the cell density was measured under a microscope.

Assay [2] has as its system HeLa cells. Description: Comparison with single layer culture method in cell proliferation test using anticancer drug. Format: cell-based, human. Conditions: day 4. Here is the method: (§1) This aqueous solution was sterilized at 121° C. for 20 min in an autoclave.
Each plate was cultured by being stood still in a CO2 incubator (37° C., 5% CO2). […] The anticancer drug used was Adriamycin (manufactured by WAKO), Paclitaxel (manufactured by WAKO) or Mitomycin C (manufactured by WAKO). To the culture medium on day 4 was added an ATP reagent (150 μL) (CellTiter-Glo (registered trade mark) Luminescent Cell Viability Assay, manufactured by Promega) to give a suspension, which was stood for about 10 min at room temperature, and the luminescence intensity (RLU value) was measured by FlexStation3 (manufactured by Molecular Devices), and the number of viable cells was measured by subtracting the luminescence value of the medium alone. For WST-8 measurement, a WST-8 solution (manufactured by DOJINDO Laboratories, 15 μL) was added, the mixture was incubated at 37° C. for 100 min, the absorbance at 450 nm was measured by an absorbance spectrometer (manufactured by Molecular Devices, SPECTRA MAX 190), and the number of viable cells was measured by subtracting the absorbance of the medium alone.

Assay [3] relates to A549 cells. Briefly: Effect of Gefitinib on cell proliferation of A549 cell stimulated with human HB-EGF. It counts as cell-based. The conditions noted are these: DAG 0.015%, day 6. The procedure: as §1
Each plate was cultured by being stood still in a CO2 incubator (37° C., 5% CO2). […] To the culture medium on day 6 was added an ATP reagent (150 μL) (CellTiter-Glo (registered trade mark) Luminescent Cell Viability Assay, manufactured by Promega) to give a suspension, which was stood for about 10 min at room temperature, and the luminescence intensity (RLU value) was measured by FlexStation3 (manufactured by Molecular Devices), and the number of viable cells was measured by subtracting the luminescence value of the medium alone.

In assay [4] the test system is A431 cells. Description: Effect of Gefitinib, Elrotinib on proliferation of A431 cells stimulated with human HB-EGF. It counts as cell-based. Conditions: A431 cells stimulated with human HB-EGF, 0.015% (w/v) deacylated gellan gum medium, low adhesion plate. The procedure:
Each plate was cultured by being stood still in a CO2 incubator (37° C., 5% CO2). […] To the culture medium on days 4, 6 and 8 was added an ATP reagent (150 μL) (CellTiter-Glo (registered trade mark) Luminescent Cell Viability Assay, manufactured by Promega) to give a suspension, which was stood for about 10 min at room temperature, and the luminescence intensity (RLU value) was measured by FlexStation3 (manufactured by Molecular Devices), and the number of viable cells was measured by subtracting the luminescence value of the medium alone.

[5] abbreviates: 0.005 μM, deacylated gellan gum addition group (0.015%).
[6] abbreviates: 0.005 μM, single layer culture group.
Setting [7] is: 0.05 μM, deacylated gellan gum addition group (0.015%).
[8] abbreviates: 0.05 μM, single layer culture group.
[9] abbreviates: 0.5 μM, deacylated gellan gum addition group (0.015%).
Where [10] appears, read: 0.5 μM, single layer culture group.

As for `CO[C@@]12[C@H](COC(N)=O)C3=C(C(=O)C(C)=C(N)C3=O)N1C[C@@H]1N[C@@H]12` [Mitomycin C], the cell density is listed as 1.0 10^4 cells/mL in assay [1] (0.01 μM), 0.4 10^4 cells/mL in assay [1] (0.1 μM) and 0.1 10^4 cells/mL in assay [1] (1 μM). In addition, the “cell number (absorbance at 450 nm, WST-8)” value was 0.089 in assay [1] (0.01 μM, culture day 3); 0.016 in assay [1] (0.01 μM, culture day 5); <0 in assay [1] (0.01 μM, culture day 7); 0.032 in assay [1] (0.1 μM, culture day 3); <0 in assay [1] (0.1 μM, culture day 5); <0 in assay [1] (0.1 μM, culture day 7). Besides, the “cell number (absorbance at 450 nm, WST-8)” value is reported as <0 in assay [1] (1 μM, culture day 3); <0 in assay [1] (1 μM, culture day 5); <0 in assay [1] (1 μM, culture day 7). In addition, the “% Control of RLU value (ATP)” value in assay [2] (setting [5]) was found to be 83 % Control; in assay [2] (setting [6]) it was 99 % Control; in assay [2] (setting [7]), 48 % Control; in assay [2] (setting [8]) it was 89 % Control; in assay [2] (setting [9]) it was 29 % Control; in assay [2] (setting [10]), 86 % Control. The “% Control of absorbance at 450 nm (WST-8)” value worked out at 94 % Control in assay [2] (setting [5]); 101 % Control in assay [2] (setting [6]); 37 % Control in assay [2] (setting [7]); 83 % Control in assay [2] (setting [8]); 12 % Control in assay [2] (setting [9]); 71 % Control in assay [2] (setting [10]).

Regarding `COc1cc2ncnc(Nc3ccc(F)c(Cl)c3)c2cc1OCCCN1CCOCC1` [Gefitinib], the “% Control of RLU value (ATP)” value in assay [3] (0.1 μM, HB-EGF 100 ng/ml) is recorded as 91 % Control; in assay [3] (0.1 μM, HB-EGF no addition), 89 % Control; in assay [3] (0.3 μM, HB-EGF 100 ng/ml) it was 74 % Control; in assay [3] (0.3 μM, HB-EGF no addition) it was 84 % Control; in assay [3] (1 μM, HB-EGF 100 ng/ml) it was 59 % Control; in assay [3] (1 μM, HB-EGF no addition) it was 77 % Control. Further, the “% Control of RLU value (ATP)” value in assay [3] (3 μM, HB-EGF 100 ng/ml) was determined as 53 % Control; in assay [3] (3 μM, HB-EGF no addition), 69 % Control.

As for `C#Cc1cccc(Nc2ncnc3cc(OCCOC)c(OCCOC)cc23)c1` [Elrotinib], the “% Control value of the RLU value (ATP measurement, luminescence intensity)” value in assay [4] (drug 0.1 μM, day 4) is reported as 88%; in assay [4] (drug 0.1 μM, day 8), 56%; in assay [4] (drug 0.3 μM, day 4), 89%; in assay [4] (drug 0.3 μM, day 8) it was 27%; in assay [4] (drug 1 μM, day 4), 21%; in assay [4] (drug 1 μM, day 8), 4%. Further, the “% Control value of the RLU value (ATP measurement, luminescence intensity)” value is on record as 4% in assay [4] (drug 3 μM, day 4) and 0% in assay [4] (drug 3 μM, day 8).
